From EP0156091A1, “Beta-oxo-alpha-carbamoyl-pyrrolepropionitriles, processes for their preparation, pharmaceutical compositions comprising these compounds and their therapeutic use” (CIBA-GEIGY AG, priority 1984, dated 1985) come the findings set out here.

Test [1] has as its system durch Carrageenin hervorgerufenen Oedem. Nature of the test: Carrageenan paw oedema test. The format is in vivo, Ratte. The note with it: rat. The protocol: Der Carrageenin-Photenödem-Test in Hinsicht auf die antiinflammatorische Wirkung wird an der Ratte wie folgt durchgeführt: • Eine Stunde nach der oralen Verabreichung der Wirksubstanz wird in die Sohle einer hinteren Pfote 0,1 ml Carrageenin (1%-ig) injiziert. In bestimmten Zeiten wird dann die Differenz der Schwellung zwischen der behandelten und der intakten gegenseitigen Pfote durch Quecksilber-Verdrängung gemessen.
Als Beispiele der Erfindung seien das ß-0xo-a-(phenylcarbamoyl)-ß-(2-pyrrolyl)-propionitril des Beispeils 1 und das ß-0xo-a-(4-chlorphenyl)-ß-(2-pyrrolyl)-propionitril des Beispiels 2 genannt, welche bei einer peroralen Dosis von 100 mg/kg, gegen die durch Carrageenin hervorgerufenen Oedem an der Ratte, 3 Stunden nach der Verabreichung, einen 46 bzw. 63%-igen Schutz gewähren. Analog ergibt das β-Oxo-α-(2,4- difluorphenylcarbamoyl)-ß-(2-pyrrolyl)-propionitril des Beispiels 3, bei einer Dosis von 25 mg/kg/p.o. einen 33%-igen Schutz.
For orientation: The carrageenan paw model is a standard test of acute inflammation.

Test [2] has as its system Adjuvans-Arthritis. Nature of the test: Adjuvant arthritis test. The test is classed as in vivo, Ratte. As to conditions: rat, 25 mg/kg/p.o. How it is done:
Der übliche Adjuvans-Arthritis-Test für die anti-arthritische Aktivität wird im wesentlichen wie in Proc. Soc. Exp. Biol. Med. 137, 506 (1971) durchgeführt.
Weiter sind die Verbindungen der Erfindung, z.B. die vorher genannten Verbindungen der Beispiele 1, 2 und 3 in dem üblichen Adjuvans- Arthritis-Test an der Ratte bei einer Dosis von 25 mg/kg/p.o. aktiv und sie gewähren einen Schutz von 47%, 58% bzw. 55Z.
Beispiel 13: Der Schutz im üblichen Adjuvans-Arthritis-Test, der im wesentlichen gemäss Proc. Soc. Exp. Biol. Med. 137, 506 (1971) durchgeführt wird, ist wie folgt: […]

Test [3] relates to BCG immunisierten Adjuvans-Arthritis-Ratte. Nature of the test: Skin test (delayed hypersensitivity, PPD) in BCG-immunised adjuvant arthritis rat. The test is classed as in vivo. The note with it: 25 mg/kg/p.o. An excerpt: Die Erhöhung der durch die Zellen vermittelten Immunität wird in-vivo an der mit BCG-immunisierten arthritischen Ratten durch Messung der Verzögerung der Ueberempfindlichkeitsreaktion, im wesentlichen wie in Current Therapeutic Research 30, S 34 (1981) beschrieben, gemessen.
Männliche Charles River Ratten von einem Gewicht von 325-400 g werden sensibilisiert, indem man jedem Versuchstier in die rechte hintere Pfotensohle […] Mycobacterium tuberculosis (Difco), das in Freund' schem Adjuvans (Freund's incomplete adjuvant) suspendiert ist, injiziert. Die Tiere werden am 18. Tag nach der Adjuvans-Injektion mit 0,1 ml BCG-Vakzine intradermal immunisiert. Die Wirksubstanz wird peroral in einer Maisstärke-Suspension verabreicht. Die Kontrolltiere werden lediglich mit der Maisstärke behandelt. Alle Tiere werden am 29. Tag an der Haut durch intradermale Verabreichung von 10 pg PPD (purified protein derivative) getestet, um Hautreaktionen hervorzurufen. Der Durchmesser des Erythems und die Erhärtungsreaktion werden 24 Stunden nach der Antigen-Behandlung gemessen. Eine […] des Erythem-Durchmessers deutet auf die erhöhte Zellenimmunität hin.

Setting [4] is: 100 mg/kg peroral, 3 hours after administration.

The structures appear in SMILES notation.

Turning to `N#CC(C(=O)Nc1ccccc1)C(=O)c1ccc[nH]1` (stereo not shown) [Beispiel 1, ß-Oxo-a-(phenylcarbamoyl)-ß-(2-pyrollyl)-propionitril], the “Schutz gegen die durch Carrageenin hervorgerufenen Oedem” value in test [1] (setting [4]) is reported as 46%. In addition, in test [2], the “Schutz im Adjuvans-Arthritis-Test” value is 47%. For the same compound, the “Wirkung im Haut-Test (immunopotenzierende Wirkung)” value in test [3] was “signifikante Wirkung”.
`N#CC(C(=O)Nc1ccc(F)cc1F)C(=O)c1ccc[nH]1` (stereo not shown) [Beispiel 3, ß-0xo-a-(2,4-difluorphenylcarbamoyl)-ß-(2-pyrrolyl)-propionitril]: the “Schutz gegen die durch Carrageenin hervorgerufenen Oedem” value in test [1] (25 mg/kg/p.o.) is listed as 33%.
For the compound `N#CC(C(=O)Nc1ccc(Cl)cc1)C(=O)c1ccc[nH]1` (stereo not drawn) [Beispiel 2, β-Oxo-α-(4-chlorphenylcarbamoyl)-ß-(2-pyrrolyl)-propionitril], in test [1] (setting [4]), the “Schutz gegen die durch Carrageenin hervorgerufenen Oedem” value turned out to be 63%. Besides, the “Schutz im Adjuvans-Arthritis-Test” value in test [2] is 58%. The “Wirkung im Haut-Test (immunopotenzierende Wirkung)” value in test [3] is on record as “signifikante Wirkung”.
